Data taken from US6255339A, “Tetrahydronaphthofuranone derivatives and process for producing the same” (Meiji Seika Kaisha, Ltd., priority 1996, dated 2001).

Biological target: T1, progesterone receptor (Sus scrofa, UniProt D0EWS6)
T1 construct: from tissue; host or cells: hog uterus, cytosol (100,000×g supernatant)
T1 sequence (D0EWS6 1-934): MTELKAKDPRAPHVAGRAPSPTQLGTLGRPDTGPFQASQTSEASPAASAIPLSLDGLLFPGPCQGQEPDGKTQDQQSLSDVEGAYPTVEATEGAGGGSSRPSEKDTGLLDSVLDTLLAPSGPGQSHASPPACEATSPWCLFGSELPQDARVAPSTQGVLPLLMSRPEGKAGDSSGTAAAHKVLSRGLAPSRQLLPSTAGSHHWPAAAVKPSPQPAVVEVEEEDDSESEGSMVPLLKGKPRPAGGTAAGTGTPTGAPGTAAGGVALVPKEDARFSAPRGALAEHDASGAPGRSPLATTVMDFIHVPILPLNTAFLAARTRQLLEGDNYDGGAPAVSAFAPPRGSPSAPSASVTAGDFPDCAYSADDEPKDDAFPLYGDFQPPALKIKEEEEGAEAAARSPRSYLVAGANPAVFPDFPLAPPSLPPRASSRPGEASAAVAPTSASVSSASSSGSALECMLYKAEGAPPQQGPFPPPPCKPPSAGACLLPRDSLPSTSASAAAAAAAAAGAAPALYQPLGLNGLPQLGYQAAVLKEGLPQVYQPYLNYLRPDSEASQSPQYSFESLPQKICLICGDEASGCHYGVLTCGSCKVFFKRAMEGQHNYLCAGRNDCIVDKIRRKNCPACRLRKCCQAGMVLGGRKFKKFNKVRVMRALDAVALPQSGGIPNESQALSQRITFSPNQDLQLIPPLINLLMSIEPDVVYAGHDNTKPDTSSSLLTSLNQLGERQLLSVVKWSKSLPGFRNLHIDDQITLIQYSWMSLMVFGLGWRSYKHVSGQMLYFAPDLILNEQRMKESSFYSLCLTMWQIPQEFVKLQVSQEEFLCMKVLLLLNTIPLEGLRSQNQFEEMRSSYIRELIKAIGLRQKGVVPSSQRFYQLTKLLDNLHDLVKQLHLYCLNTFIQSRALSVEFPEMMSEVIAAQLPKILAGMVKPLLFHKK
Assay: progesterone receptor binding inhibition ([^3 H]-progesterone, cytosol from uteri of hogs)
Conditions: [^3 H]-progesterone ligand, hog uterus cytosol, 60 min at 4° C.; read-out: Inhibitory activity (IC50) against progesterone receptor binding
Method: That is, uteri taken from hogs in 5 mM phosphate buffer were disrupted using Polytron homogenizer, and the resulting solution was centrifuged (100,000×g, 30 min) to separate the supernatant, thereby preparing a cytosol containing progesterone receptor. […] Then, 100 μl of a 0.5% activated carbon solution was added to the reaction solution, and the mixture was allowed to stand for 10 min and then centrifuged (2,000×g, 10 min). The radioactivity of the supernatant was measured with a liquid scintillation counter.
Separately, the radioactivity was measured in the same manner as described above, except that no test drug was added. Further, the radioactivity was measured in the same manner as described above, except that 10 μl of Medroxyprogesterone Acetate (MPA) (10 μg/ml) was added instead of the test drug. The radioactivity with no test drug added was defined as the amount of total binding of [^3 H]-progesterone to the cytosol, and the radioactivity with MPA added was defined as the amount of non-specific binding. The inhibition ratio was calculated from these measured values by the following equation to determine the binding inhibitory activity (IC50). [formula]

IC50 | Compound
66 nM | CCC(=O)O[C@H]1CC=C2C=C3OC(=O)C=C3C[C@]2(C)[C@H]1C (relative stereo) [Example B28]
18 nM | CC1=C2C[C@@]3(C)C(=C[C@H](O)[C@H](OC(=O)c4ccc([N+](=O)[O-])cc4)[C@@H]3C)C=C2OC1=O [Example A23, (4aR,5R,6R,7S)-7-Hydroxy-6-(4-nitrobenzoyl)oxy-4a,5,6,7-tetrahydro-3,4a,5-trimethylnaphtho[2,3-b]furan-2(4H)-one]
60 nM | C[C@H]1[C@@H](OC(=O)c2ccco2)CC=C2C=C3OC(=O)C=C3C[C@@]21C (relative stereo) [Example B30, (4aR*,5R*,6S*)-4a,5-Dimethyl-6-(2-furoyl)oxy-4a,5,6,7-tetrahydronaphtho[2,3-b]furan-2(4H)-one]
400 nM | CCO[C@@H]1C=C2C=C3OC(=O)C(C)=C3C[C@]2(C)[C@@H](C)[C@H]1OC(=O)c1cccs1 [Example A41, (4aR,5R,6R,7R)-7-Ethoxy-6-(2-thiophencarbonyl)oxy-4a,5,6,7-tetrahydro-3,4a,5-trimethylnaphtho[2,3-b]furan-2(4H)-one]
29 nM | CC1=C2C[C@@]3(C)C(=C[C@@H](O)[C@H](OC(=O)c4cccs4)[C@@H]3C)C=C2OC1=O [Example A45, (4aR,5R,6R,7R)-7-Hydroxy-6-(2-thiophencarbonyl)oxy-4a,5,6,7-tetrahydro-3,4a, 5-trimethylnaphtho[2,3-b]furan-2(4H)-one]
27 nM | CC1=C2C[C@@]3(C)C(=C[C@H](O)[C@H](OC(=O)c4ccccc4)[C@@H]3C)C=C2OC1=O [Example A21, (4aR,5R,6R,7S)-6-Benzoyloxy-7-hydroxy-4a,5,6,7-tetrahydro-3,4a,5-trimethylnaphtho[2,3-b]furan-2(4H)-one]
53 nM | CCCC(=O)O[C@H]1CC=C2C=C3OC(=O)C(C)=C3C[C@]2(C)[C@H]1C (relative stereo) [Example B4, (4aR*,5R*,6S*)-6-Butyryloxy-4a,5,6,7-tetrahydro-3,4a,5-trimethylnaphtho[2,3-b]furan-2(4H)-one]
54 nM | CC1=C2C[C@@]3(C)C(=CC[C@H](OC(=O)c4ccccc4)[C@@H]3C)C=C2OC1=O (relative stereo) [Example B7, (4aR*,5R*,6S*)-6-Benzoyloxy-4a,5,6,7-tetrahydro-3,4a,5-trimethylnaphtho[2,3-b]furan-2(4H)-one]
797 nM | CC(=O)O[C@@H]1CC=C2C=C3OC(=O)C(C)=C3C[C@@]2(C)[C@@H]1C [Example B42 (Nonnatural type)]

Second part, the compound before the results:

Compound | IC50
CCC(=O)O[C@H]1[C@H](OC)C=C2C=C3OC(=O)C(C)=C3C[C@]2(C)[C@H]1C [Example A10, (4aR,5R,6R,7R)-7-Methoxy-6-propionyloxy-4a,5,6,7-tetrahydro-3,4a,5-trimethylnaphtho[2,3-b]furan-2(4H)-one] | 75 nM
CO[C@H]1C=C2C=C3OC(=O)C(C)=C3C[C@]2(C)[C@@H](C)[C@H]1OC(C)=O [Example A30, (4aR,5R,6R,7S)-6-Acetoxy-7-methoxy-4a,5,6,7-tetrahydro-3,4a, 5-trimethylnaphtho[2,3-b]furan-2(4H)-one] | 47 nM
CC(=O)O[C@H]1CC=C2C=C3OC(=O)C(C)=C3C[C@]2(C)[C@H]1C (relative stereo) [Example B2, (4aR*,5R*,6S*)-6-Acetoxy-4a,5,6,7-tetrahydro-3,4a,5-trimethylnaphtho[2,3-b]furan-2(4H)-one] | 55 nM
CC1=C2C[C@@]3(C)C(=C[C@H](O)[C@H](OC(=O)c4ccco4)[C@@H]3C)C=C2OC1=O [Example A3, (4aR,5R,6R,7S)-6-(2-Furancarbonyl)oxy-7-hydroxy-4a,5,6,7-tetrahydro-3,4a,5-trimethylnaphtho[2,3-b]furan-2(4H)-one] | 12 nM
CC1=C2C[C@@]3(C)C(=C[C@H](O)[C@H](OC(=O)CCl)[C@@H]3C)C=C2OC1=O [Example A12, (4aR,5R,6R,7S)-6-Chloroacetoxy-7-hydroxy-4a,5,6,7-tetrahydro-3,4a,5-trimethylnaphtho[2,3-b]furan-2(4H)-one] | 83 nM
CCCNC(=O)O[C@H]1[C@@H](O)C=C2C=C3OC(=O)C(C)=C3C[C@]2(C)[C@H]1C [Example A6b, (4aR,5R,6R,7S)-7-Hydroxy-6-(n-propyl)carbamoyloxy-4a,5,6,7-tetrahydro-3,4a,5-trimethylnaphtho[2,3-b]furan-2(4H)-one] | 288 nM
CC1=C2C[C@@]3(C)C(=C[C@H](O)[C@H](OC(=O)C4CCCCC4)[C@@H]3C)C=C2OC1=O [Example A19, (4aR,5R,6R,7S)-6-Cyclohexylcarbonyloxy-7-hydroxy-4a,5,6,7-tetrahydro-3,4a,5-trimethylnaphtho[2,3-b]furan-2(4H)-one] | 47 nM
CCC(=O)O[C@H]1C=C2C=C3OC(=O)C(C)=C3C[C@]2(C)[C@@H](C)[C@H]1O [Example A1, (4aR,5R,6R,7S)-6-Hydroxy-7-propionyloxy-4a,5,6,7-tetrahydro-3,4a,5-trimethylnaphtho[2,3-b]furan-2(4H)-one] | 1000 nM
CCC(=O)O[C@H]1[C@@H](OC(=O)CC)C=C2C=C3OC(=O)C(C)=C3C[C@]2(C)[C@H]1C [Example A4, (4aR,5R,6R,7S)-6,7-Dipropionyloxy-4a,5,6,7-tetrahydro-3,4a,5-trimethylnaphtho[2,3-b]furan-2(4H)-one] | 32 nM
CC1=C2C[C@@]3(C)C(=C[C@H](OCc4ccccc4)[C@H](O)[C@@H]3C)C=C2OC1=O [Example A7, (4aR,5R,6R,7S)-7-Benzyloxy-6-hydroxy-4a,5,6,7-tetrahydro-3,4a,5-trimethylnaphtho[2,3-b]furan-2(4H)-one] | 2840 nM
CC(=O)O[C@@H]1C=C2C=C3OC(=O)C(C)=C3C[C@]2(C)[C@@H](C)[C@H]1OC(=O)c1ccco1 [Example A44, (4aR,5R,6R,7R)-7-Acetoxy-6-(2-furancarbonyl)oxy-4a,5,6,7-tetrahydro-3,4a,5-trimethylnaphtho[2,3-b]furan-2(4H)-one] | 276 nM
COCO[C@H]1C=C2C=C3OC(=O)C(C)=C3C[C@]2(C)[C@@H](C)[C@H]1OC(=O)c1ccccc1 [Example A8, (4aR,5R,6R,7S)-6-Benzoyloxy-7-methoxymethoxy-4a,5,6,7-tetrahydro-3,4a,5-trimethylnaphtho[2,3-b]furan-2(4H)-one] | 97 nM
CC(=O)O[C@H]1CC=C2C=C3OC(=O)C=C3C[C@]2(C)[C@H]1C (relative stereo) [Example B27, (4aR*,5R*,6S*)-6-Acetoxy-4a,5-dimethyl-4a,5,6,7-tetrahydronaphtho [2,3-b]furan-2(4H)-one] | 39 nM
CC(=O)O[C@H]1CC=C2C=C3OC(=O)C(C)=C3C[C@]2(C)[C@H]1C [B42 (Natural type)] | 33 nM
CC1=C2C[C@@]3(C)C(=C[C@H](O)[C@H](OC(=O)C4CC4)[C@@H]3C)C=C2OC1=O [Example A17, (4aR,5R,6R,7S)-6-Cyclopropylcarbonyloxy-7-hydroxy-4a,5,6,7-tetrahydro-3,4a,5-trimethylnaphtho[2,3-b]furan-2(4H)-one] | 17 nM

Test system: not listed separately
Assay: Solubility
Format: physicochemical
Conditions: organic solvents

Compound | Solubility (solvents in which soluble)
CC1=C2C[C@@]3(C)C(=C[C@H](O)[C@H](O)[C@@H]3C)C=C2OC1=O [PF1092C] | soluble in chloroform, acetone, ethyl acetate, methanol and dimethyl sultoxide
CC(=O)O[C@H]1[C@@H](O)C=C2C=C3OC(=O)C(C)=C3C[C@]2(C)[C@H]1C [PF1092A] | soluble in chloroform, acetone, ethyl acetate, methanol and dimethyl sulioxide
CC(=O)O[C@H]1C=C2C=C3OC(=O)C(C)=C3C[C@]2(C)[C@@H](C)[C@H]1O [PF1092B] | soluble in chloroform, acetone, ethyl acetate, methanol and dimethyl sulioxide

Same assay, conditions: water and hexane

Solubility (solvents in which insoluble) | Compound
insoluble in water and hexane | CC1=C2C[C@@]3(C)C(=C[C@H](O)[C@H](O)[C@@H]3C)C=C2OC1=O [PF1092C]
insoluble in water and hexane | CC(=O)O[C@H]1[C@@H](O)C=C2C=C3OC(=O)C(C)=C3C[C@]2(C)[C@H]1C [PF1092A]
insoluble in water and hexane | CC(=O)O[C@H]1C=C2C=C3OC(=O)C(C)=C3C[C@]2(C)[C@@H](C)[C@H]1O [PF1092B]

Test system: not listed separately
Assay: Acute Toxicity
Format: in vivo, SD male rat
Conditions: SD male rat (16 weeks old), hypodermic, 60 mg/kg in 0.2% methylcellulose
Method: The compound of Example A4 dissolved in 0.2% of methylcellulose solution was hypodermically administered to SD male rat (16 weeks old) at a dose of 60 mg/kg.

Compound | survival
CCC(=O)O[C@H]1[C@@H](OC(=O)CC)C=C2C=C3OC(=O)C(C)=C3C[C@]2(C)[C@H]1C [Example A4, (4aR,5R,6R,7S)-6,7-Dipropionyloxy-4a,5,6,7-tetrahydro-3,4a,5-trimethylnaphtho[2,3-b]furan-2(4H)-one] | all the animals survived

Same assay, conditions: rat, in vivo, 60 mg/kg

Compound | toxicity
CCC(=O)O[C@H]1[C@@H](OC(=O)CC)C=C2C=C3OC(=O)C(C)=C3C[C@]2(C)[C@H]1C [Example A4, (4aR,5R,6R,7S)-6,7-Dipropionyloxy-4a,5,6,7-tetrahydro-3,4a,5-trimethylnaphtho[2,3-b]furan-2(4H)-one] | no significant toxicity
